From US11319324B2, “Pyrazolo-pyrrolo-pyrimidine-dione derivatives as P2X3 inhibitors” (Bayer Aktiengesellschaft, priority 2017, dated 2022) come the findings set out here.

What all share (format): cell-based
Experiment [1] addresses T1, human P2X2/3 receptors (Homo sapiens, UniProt P56373+Q9UBL9).
T1 construct: expressed in transfected cells; host or cells: human astrocytoma 1321N1 (1312N1 [sic])
T1 sequence (P56373 1-397): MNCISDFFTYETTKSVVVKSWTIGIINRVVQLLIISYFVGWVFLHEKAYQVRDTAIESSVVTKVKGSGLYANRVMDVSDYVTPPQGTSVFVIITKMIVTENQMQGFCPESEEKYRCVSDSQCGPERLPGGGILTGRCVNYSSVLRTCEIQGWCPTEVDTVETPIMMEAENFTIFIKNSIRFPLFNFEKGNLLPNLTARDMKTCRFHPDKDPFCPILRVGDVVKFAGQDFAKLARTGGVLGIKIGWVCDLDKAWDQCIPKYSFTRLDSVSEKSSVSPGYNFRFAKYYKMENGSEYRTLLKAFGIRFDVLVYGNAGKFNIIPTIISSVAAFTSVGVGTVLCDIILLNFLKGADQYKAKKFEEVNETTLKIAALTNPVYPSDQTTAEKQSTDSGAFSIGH
T1 sequence (Q9UBL9 1-471): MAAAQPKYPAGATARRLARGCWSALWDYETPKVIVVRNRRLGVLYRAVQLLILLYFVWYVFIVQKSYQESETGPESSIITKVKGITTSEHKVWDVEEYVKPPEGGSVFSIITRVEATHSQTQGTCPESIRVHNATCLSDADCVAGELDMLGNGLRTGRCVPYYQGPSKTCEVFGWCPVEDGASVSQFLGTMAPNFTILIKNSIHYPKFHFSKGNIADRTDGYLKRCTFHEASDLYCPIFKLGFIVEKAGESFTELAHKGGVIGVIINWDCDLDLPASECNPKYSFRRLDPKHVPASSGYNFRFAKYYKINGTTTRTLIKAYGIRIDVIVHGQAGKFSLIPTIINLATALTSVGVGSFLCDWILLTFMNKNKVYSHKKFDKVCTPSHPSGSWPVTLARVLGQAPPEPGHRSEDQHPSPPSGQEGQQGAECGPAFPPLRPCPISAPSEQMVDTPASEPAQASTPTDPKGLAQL
Briefly: Intracellular calcium measurement, antagonist activity at human P2X2/3 receptors (hP2X23 1321N1), Fluo8. The settings on record: for IC50: column 4); 1321N1 cells, human P2X2/3, Fluo8, agonist ATP at EC50; read-out: 4) hP2X2/3 IC50 [nM] (1321N1); for hP2X23/hP2X3* Selectivity (1321N1): ratio of column 4) hP2X2/3 to column 3) hP2X3, 1321N1. In a few lines: (§1)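 Inhibition of ATP-triggered Ca2+ transients is measured in 1321N1 cells expressing P2X3 homotrimers or P2X2/3 heterotrimers.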
Background: Calcium flux is commonly read through the fluorescence of an indicator in the cells.

Experiment [2] has as its target T2, human P2X3 receptor (Homo sapiens, UniProt P56373).
T2 sequence (P56373 1-397): T1 sequence (P56373 1-397)
Briefly: Intracellular calcium measurement to assess antagonist activity at human P2X3 receptors (hP2X3 CHO), photina luminescence. On the set-up: expressed in transfected cells; host or cells: Chinese hamster ovary (CHO) cells. The settings on record: column 2), CHO cells, agonist α,β-methylene-ATP at EC50. In a few lines: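 CHO cells stably expressing human P2X3 and mitochondrial photina, plated the day before at 30 °C, then loaded 3 h at 37 °C in 2 mM Ca-tyrode buffer with 5 μg/ml coelenterazine. Agonist-evoked calcium luminescence read immediately; inhibition seen as signal decrease.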

The target of experiment [3] is T2, human P2X3 receptor. The experiment in a line: Intracellular calcium measurement to assess antagonist activity at human P2X3 receptors (hP2X3 FLIPR). The following applies: head prints (1321N1); read-out: 1) hP2X3 IC50 [nM] (1321N1). Set-up: expressed in transfected cells; host or cells: human astrocytoma 1321N1 (1312N1 [sic]). The procedure: 1) Intracellular Calcium Measurement to Assess Antagonist Activity at Human P2X3 Receptors (hP2X3 FLIPR)
A fluorescent imaging plate reader (FLEX/FLIPR station; Molecular Devices) was used to monitor intracellular calcium levels using the calcium-chelating dye Fluo-4 (Molecular Probes). The excitation and emission wavelengths used to monitor fluorescence were 470-495 nm and 515-575 nm, respectively. The human astrocytoma […] cells expressing purinergic receptors P2X3 (human) were plated at a density of 15,000 cells/well in collagen—coated 384-well plates approximately 20 hours before beginning the assay. […] The dye supernatant was removed and replaced with 45 μl probenecid buffer (Hank's balanced salt solution, 20 mM HEPES, 0.5 mM CaCl2, 0.5 mM MgCl2, 0.1% BSA, 5 mM probenecid, 10 mM D-glucose monohydrate, pH=7.4). The test compounds were added in a volume of 5 μl and allowed to incubate for 30 min at 37° C. The final assay DMSO concentration is 1%. […] The fluorescence was measured for an interval of 90 sec at 2 sec intervals and analyzed based on the increase in peak relative fluorescence units (RFU) compared to the basal fluorescence. Peak fluorescence was used to determine the response to agonist obtained at each concentration of test compound by the following equation: Response=100*(RFU(test compound)−RFU(control))/(RFU(DMSO)−RFU(control))
The Examples were tested in triplicates per plate and mean values were plotted in Excel XLFit to determine IC50 values at the human P2X3 and human P2X2/3 receptors, percentage of maximal inhibition and the Hill coefficients.

The target in experiment [4] is T2, human P2X3 receptor. Briefly: Intracellular calcium measurement, antagonist activity at human P2X3 receptors (hP2X3 1321N1), Fluo8. On the set-up: expressed in transfected cells; host or cells: human astrocytoma 1321N1 (1312N1 [sic]). The settings on record: column 3); 1321N1 cells, human P2X3, Fluo8, agonist ATP at EC50. The procedure, abridged:
as §1

Take `CC(C)(C)c1cc2n(CC(=O)Nc3ccc(F)cn3)c3c(c(=O)n2n1)CN(CC(=O)N1CCCC1)C3=O` [Example 38]: the IC50 is > 21000 nM in experiment [1], 175 nM in experiment [2], 161 nM in experiment [3] and 627 nM in experiment [4]. Further, in experiment [1], the “hP2X23/hP2X3* Selectivity (1321N1)” value is recorded as >34.
Take `COC[C@H](C)N1Cc2c(n(CC(=O)Nc3ccc(F)cn3)c3cc(C(C)C)nn3c2=O)C1=O` [Example 39]: the IC50 stood at 7550 nM in experiment [1], 29 nM in experiment [2], 14 nM in experiment [3] and 25 nM in experiment [4]. For the same compound, the “hP2X23/hP2X3* Selectivity (1321N1)” value in experiment [1] turned out to be 308.
Taken in the same sequence, the figures for `COC[C@H](C)N1Cc2c(n(CC(=O)Nc3ccc(F)cn3)c3cc(C4CCOCC4)nn3c2=O)C1=O` [Example 40] were > 23500 nM, 26 nM, 20 nM, 31 nM and >758.
On the same counts, the results for `COC[C@H](C)N1Cc2c(n(CC(=O)Nc3ccc(F)cn3)c3cc(C)nn3c2=O)C1=O` [Example 41] are > 32000 nM, 51 nM, 55 nM, 82 nM and >393.
On the same counts, the results for `COC[C@@H](C)N1Cc2c(n(CC(=O)Nc3ccc(F)cn3)c3cc(C(C)(C)C)nn3c2=O)C1=O` [Example 43] are 6500 nM, 20 nM, 19 nM, 31 nM and 213.
Regarding `COC[C@@H](C)N1Cc2c(n(CC(=O)Nc3ccc(F)cn3)c3cc(C(C)C)nn3c2=O)C1=O` [Example 44], the IC50 in experiment [1] turned out to be 8200 nM; in experiment [2], 39 nM; in experiment [3] it was 16 nM; in experiment [4] it was 34 nM. Further, in experiment [1], the “hP2X23/hP2X3* Selectivity (1321N1)” value was found to be 241.
Taken in the same sequence, the figures for `CC(C)N1Cc2c(n(CC(=O)Nc3ccc(F)cn3)c3ccnn3c2=O)C1=O` [Example 45] were > 32000 nM, 394 nM, 377 nM, 370 nM and >86.
As to `CCc1cc2n(CC(=O)Nc3ccc(F)cn3)c3c(c(=O)n2n1)CN([C@@H](C)COC)C3=O` [Example 46], the IC50 in experiment [1] came out at 14000 nM; in experiment [2], 59 nM; in experiment [3], 28 nM; in experiment [4], 36 nM. Further, in experiment [1], the “hP2X23/hP2X3* Selectivity (1321N1)” value is 385.
On the same counts, the results for `CC(C)(C)c1cc2n(CC(=O)Nc3ccc(Cl)cn3)c3c(c(=O)n2n1)CN(C1COC1)C3=O` [Example 48] are 8100 nM, 555 nM, 182 nM, 263 nM and 31.
As to `COCCN1Cc2c(n(CC(=O)Nc3ccc(F)cn3)c3cc(C(C)(C)C)nn3c2=O)C1=O` [Example 49], the IC50 in experiment [1] was 3900 nM; in experiment [2], 62 nM; in experiment [3] it was 23 nM; in experiment [4], 33 nM. Moreover, the “hP2X23/hP2X3* Selectivity (1321N1)” value in experiment [1] is on record as 119.
On the same counts, the results for `Cc1cc2n(CC(=O)Nc3ccc(F)cn3)c3c(c(=O)n2n1)CN([C@@H](C)C1CC1)C3=O` [Example 50] are 8700 nM, 215 nM, 117 nM, 155 nM and 56.
Taken in the same sequence, the figures for `CC(C)c1cc2n(CC(=O)Nc3ccc(F)cn3)c3c(c(=O)n2n1)CN(CC(C)(C)O)C3=O` [Example 51] were 11500 nM, 160 nM, 311 nM, 253 nM and 46.
On the same counts, the results for `COC[C@@H](C)N1Cc2c(n(CC(=O)Nc3ccc(F)cn3)c3cc(C)nn3c2=O)C1=O` [Example 52] are > 23000 nM, 43 nM, 52 nM, 71 nM and >324.
Turning to `CC[C@H](C)N1Cc2c(n(CC(=O)Nc3ccc(F)cn3)c3cc(C)nn3c2=O)C1=O` [Example 53], the IC50 is > 22000 nM in experiment [1], 195 nM in experiment [2], 133 nM in experiment [3] and 200 nM in experiment [4]. Moreover, the “hP2X23/hP2X3* Selectivity (1321N1)” value in experiment [1] is reported as >110.
In the case of `C[C@H](O)CN1Cc2c(n(CC(=O)Nc3ccc(F)cn3)c3cc(C(C)(C)C)nn3c2=O)C1=O` [Example 54], the IC50 in experiment [1] is > 32000 nM; in experiment [2] it was 155 nM; in experiment [3], 215 nM; in experiment [4], 263 nM. Moreover, the “hP2X23/hP2X3* Selectivity (1321N1)” value in experiment [1] is listed as >122.
Taken in the same sequence, the figures for `Cc1cc2n(CC(=O)Nc3ccc(F)cn3)c3c(c(=O)n2n1)CN([C@H](C)C1CC1)C3=O` [Example 55] were 10800 nM, 195 nM, 104 nM, 117 nM and 93.
On the same counts, the results for `CC(C)(C)c1cc2n(CC(=O)Nc3ccc(F)cn3)c3c(c(=O)n2n1)CN(CCO)C3=O` [Example 135, 2-[2-tert-butyl-6-(2-hydroxyethyl)-5,8-dioxo-5,6,7,8-tetrahydro-4H-pyrazolo[1,5-a]pyrrolo[3,4-d]pyrimidin-4-yl]-N-(5-fluoropyridin-2-yl)acetamide] are 6850 nM, 59 nM, 40 nM, 119 nM and 58.
On the same counts, the results for `CC(C)(C)c1cc2n(CC(=O)Nc3ccc(F)cn3)c3c(c(=O)n2n1)CN(CCN1CCOCC1)C3=O` [Example 138, 2-{2-tert-butyl-6-[2-(morpholin-4-yl)ethyl]-5,8-dioxo-5,6,7,8-tetrahydro-4H-pyrazolo[1,5-a]pyrrolo[3,4-d]pyrimidin-4-yl}-N-(5-fluoropyridin-2-yl)acetamide] are 9150 nM, 32 nM, 56 nM, 86 nM and 107.
